In article PMC4577212, “X-Ray Structure and Mutagenesis Studies of the N-Isopropylammelide Isopropylaminohydrolase, AtzC” (PLoS ONE, 2015):

Biological target: T1, AtzC (N-isopropylammelide isopropylaminohydrolase) (Pseudomonas sp. ADP, UniProt O52063)
T1 construct: full length, N-terminal His-tag (pETCC2, from pET14b), expressed in E. coli BL21(DE3); tag cut with thrombin for crystals; homotetramer ~210 kDa; Zn enzyme
T1 sequence (O52063 1-403): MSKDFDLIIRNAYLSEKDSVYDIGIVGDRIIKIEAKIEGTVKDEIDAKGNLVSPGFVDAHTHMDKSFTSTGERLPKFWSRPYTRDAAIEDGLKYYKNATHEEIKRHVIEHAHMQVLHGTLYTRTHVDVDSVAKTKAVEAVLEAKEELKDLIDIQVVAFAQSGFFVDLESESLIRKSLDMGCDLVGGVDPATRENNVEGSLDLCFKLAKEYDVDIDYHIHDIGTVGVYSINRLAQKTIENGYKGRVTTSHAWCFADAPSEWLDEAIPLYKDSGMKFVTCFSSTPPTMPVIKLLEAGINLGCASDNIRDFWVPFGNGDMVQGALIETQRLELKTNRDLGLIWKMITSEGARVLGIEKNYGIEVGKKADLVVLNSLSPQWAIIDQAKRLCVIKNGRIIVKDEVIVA
Test: X-ray crystal structure, […] Å
Format: binding
Settings: crystals from 2.4 M sodium malonate pH 7; active site; tag cut with thrombin

## O=C(O)CC(=O)O [malonic acid]
  X-ray crystal structure, 1.84 Å: The malonate (a poor inhibitor of AtzC, Figure E in S1 File) adopts a planar conformation
